According to patent US12139488B2, “Pyrido[3,2-d]pyrimidine compounds uses thereof for treating a proliferative disease” (Universite de Montreal, priority 2021, dated 2024):
pEC50, pIC50: −log10 of the molar value. Where two headings read alike, the source gives them in different places.

How the values were obtained:
Format in all cases: cell-based, human
[1] = test system: NCIH1755 cells (BRAF G469A); experiment: Proliferation inhibition (CellTiter-Glo), NCIH1755; settings: NCIH1755, 3 days, read-out: NCIH1755 Prolif. EC50
Description: (§1) All cancer cell lines (A375, A101D, A2058, RKO, HT29 SK-MEL 30, IPC298, HepG2, HCT-116, Lovo, SWV620, SW480, NCI-H358, NCI-H2122, Calu-6, NCIH2087, NCIH1755, NCIH1666 and Mewo) were obtained from ATCC and cultured in RPMI-1640 medium (Gibco) supplemented with 5% heat inactivated fetal bovine serum (FBS, Wisent) at 37° C. under 5% CO2. Cells were maintained in T175 flasks (Greiner). They were passaged by removing the culture medium, washing once in 10 mL of room temperature Phosphate Buffered Saline (PBS; Wisent) and incubating at 37° C. with 2 mL of 0.05% Trypsin (Thermo-Fisher). Trypsin was then inactivated by adding complete growth medium and the cells were then replated in a T175 culture dish at the appropriate dilution. All cell lines were routinely tested for mycoplasma contamination. Tissue type and mutational status of each cell line can be found in Table B.
(§2) CellTiter-Glo® viability analysis was conducted on cells plated in 100 μL of complete RPMI-1640 growth medium in 96-well flat-bottomed white opaque plates (Greiner or Croning) at a density indicated in Table E (for each CCL, number of cells plated per well of a 96-well plate to perform the CellTiter-Glo® cell viability assay). The cell density in cells/cm^2 would correspond to cell number divided by the area of one well of a 96-well plate (0.32 cm^2). […]
(§3) After 3 days of incubation, the growth media were removed by aspiration and 60 μL of diluted CellTiter-Glo® reagent (10 μL CellTiter-Glo® reagent+50 μL of PBS) was added to each well. […] Luminescence signals were then acquired on a Synergy Neo2 plate reader (Biotek).
(§4) The effect of each compound dilution on the proliferation of cancer cell lines was expressed in % inhibition and calculated as follows. […]
(§5) The ability of each compound to inhibit proliferation was expressed as a EC50 value obtained by plotting the effect values for each data point of a dilution series and fitting the obtained curves using a log(agonist) versus response-variable slope (four parameters) function using GraphPadPrism (V7.0) or Dotmatics Screening Ultra platform.

[2] = test system: pERK in NCI-H2122 cells (KRAS-G12C); experiment: Phospho-ERK inhibition (AlphaLISA), NCI-H2122; settings: for pIC50: NCI-H2122; for NCI-H2122 pERK % Ymin: NCI-H2122, value in parentheses
Description: as §1
(§6) AlphaLISA® SureFire® Ultra™ p-ERK 1/2 (Thr202/Tyr204) analysis was conducted on cells plated in 100 μL of complete RPMI-1640 growth medium in 96-well flat-bottomed transparent dishes (Costar) at a density indicated in Table C. Cells were maintained overnight at 37° C. under 5% CO2 before treatment with compounds' dilution series for one hour. The cell density in cells/cm^2 corresponds to cell number divided by the area of one well of a 96-well plate ([…]).
(§7) In a dilution series 100 μL/well of test substance dilution prepared in complete RPMI-1640 growth media was added to the cells. The dilution series is selected so that ten concentrations cover a range from 10 μM to 0.33 nM. If necessary the initial concentration of 10 μM is increased to 100 μM or lowered to 1 μM (as in the case of A375 and H1666 cells, which are generally more sensitive to the compounds) and further dilution is carried out accordingly. The final concentration of DMSO in the assay is set at 0.5%.
(§8) After treatment, media was removed and cells were lysed in 50 μL of 1× AlphaScreen Ultra Lysis Buffer (Perkin Elmer). The AlphaLISA® SureFire® Ultra™ p-ERK 1/2 (Thr202/Tyr2O4) (PerkinElmer) reactions were performed with 5 μL of cell lysate according to the manufacturer's specifications in 384-well proxyplates (Perkin Elmer) followed by overnight incubation of the reactions at room temperature in a humidified chamber. After completion of the reactions, the signals were recorded on an EnVision plate reader (Perkin Elmer) using built in AlphaLISA® settings.
(§9) The effect of each compound dilution on the pERK signal was expressed in % inhibition and calculated as follows. An internal 100% inhibition control ([…] trametinib, cat #HY-10999; MedChem Express; CAS #871700-17-3) was included in each plate and used as a measure of pERK background. First, the value obtained for trametinib was subtracted from each data point. The average of DMSO (vehicle) controls (set as 0% inhibition) was established and used to calculate % inhibition: % inhibition=100*(1-((pERK signalcompound)/(pERK signalDMSO)))
as §5, with “pERK signal” for “proliferation”, “an IC50” for “a EC50”, “inhibition” for “effect”
(§10) When present, paradoxical pERK induction is inferred from the negative % inhibition values observed in the pERK IC50 curves of a compound.

[3] = test system: pERK in NCIH1755 cells (BRAF G469A); experiment: Phospho-ERK inhibition (AlphaLISA), NCIH1755; settings: for NCIH1755 pERK % Ymin: NCIH1755, value in parentheses
Description: as §1, §6, §7, §8, §9
as §5, with “pERK signal” for “proliferation”, “an IC50” for “a EC50”, “inhibition” for “effect”
as §10

SW620 cells (KRAS-G12V) = experiment: Proliferation inhibition (CellTiter-Glo), SW620; settings: SW620, 3 days, read-out: SW620 Prolif. EC50
Description: as §1, §2, §3, §4, §5

[4] = test system: HCT-116 cells (KRAS G13D); experiment: Proliferation inhibition (CellTiter-Glo), HCT116; settings: HCT116, 3 days, read-out: HCT116 Prolif. EC50
Description: as §1, §2, §3, §4, §5

[5] = test system: NCIH2087 cells (BRAF L597V; KRAS Q61K); experiment: Proliferation inhibition (CellTiter-Glo), NCIH2087; settings: NCIH2087, 3 days, read-out: NCIH2087 Prolif. EC50
Description: as §1, §2, §3, §4, §5

pIC50 ([2]; Homo sapiens) | pIC50 ([3]; Homo sapiens, NCI-H1755) | pEC50 (SW620 cells (KRAS-G12V); Homo sapiens, SW-620, 72 h) | pEC50 ([4]; Homo sapiens, HCT-116, 72 h) | pIC50 [2] | pIC50 ([3]; NCIH1755) | pEC50 (SW620 cells (KRAS-G12V)) | pEC50 [4] | SMILES | pEC50 ([1]; Homo sapiens, NCI-H1755, 72 h) | NCI-H2122 pERK % Ymin [2] | NCIH1755 pERK % Ymin [3] | pEC50 ([5]; Homo sapiens, NCI-H2087, 72 h) | pEC50 [1] | pEC50 [5]
6.52 to 7.52 | 6.52 to 7.52 | 5.52 to 6.52 | 5.52 to 6.52 | – | – | – | – | Cc1ccc2c(Nc3cccc(Cl)c3F)nccc2c1NC(=O)c1csc2c(N)ncnc12 [Belvarafenib, reference compound] | < 5.52 | −9% | −79% | > 7.52 | – | –
– | – | – | – | 6.52 to 7.52 | > 7.52 | 5.52 to 6.52 | 5.52 to 6.52 | Nc1cccc2c1ncn2-c1ccc2ncnc(Nc3c(F)ccc(NS(=O)(=O)c4cccc(Cl)c4Cl)c3F)c2n1 [Example 99] | – | −3% | −8% | – | > 7.52 | 5.52 to 6.52
– | – | – | – | 6.52 to 7.52 | 6.52 to 7.52 | 5.52 to 6.52 | 5.52 to 6.52 | CC1(O)CCN(c2cccc3c2ncn3-c2ccc3ncnc(Nc4c(F)ccc(NS(=O)(=O)c5cccc(Cl)c5Cl)c4F)c3n2)CC1 [Example 524] | – | 13% | −13% | – | 5.52 to 6.52 | > 7.52
